According to article PMC10932281, “A Combination of β-Aescin and Newly Synthesized Alkylamidobetaines as Modern Components Eradicating the Biofilms of Multidrug-Resistant Clinical Strains of Candida glabrata” (International Journal of Molecular Sciences, 2024):
≈ marks a conversion by molar mass, not a printed value.

Columns and labels:
Assay type in all cases: cell-based, Candida glabrata
[1] = system: C. glabrata strains (ATCC 90030, 2586, 2853); experiment: Interaction of AABs with antifungal agents, statements for all tested strains together; settings: for MF with AABs: all of the tested C. glabrata strains, AABs 3 µM
[2] = system: C. glabrata 2586 clinical strain; experiment: MIC90/MFC, EUCAST broth microdilution; settings: Nakaseomyces glabratus; for MFC: read-out: MFC; for MIC90: read-out: MIC90
C. glabrata ATCC 90030 [3] = experiment: FICI checkerboard, β-aescin with antifungal drugs; settings: for FICI: combination with β-aescin
C. glabrata 2853 [4] = experiment: FICI checkerboard, β-aescin with antifungal drugs; settings: for FICI: combination with β-aescin
C. glabrata 2586 [5] = experiment: FICI checkerboard, β-aescin with antifungal drugs; settings: for FICI: combination with β-aescin
C. glabrata ATCC 90030 [6] = experiment: MIC90/MFC, EUCAST broth microdilution; settings: Nakaseomyces glabratus, ATCC90030, ATCC 90030; for MFC: read-out: MFC; for MIC90: read-out: MIC90
[7] = system: C. glabrata 2853 clinical strain; experiment: MIC90/MFC, EUCAST broth microdilution; settings: Nakaseomyces glabratus; for MFC: read-out: MFC; for MIC90: read-out: MIC90
C. glabrata 2586 [8] = experiment: Interaction of AABs (3 µM) with antifungal agents, modified checkerboard; settings: for Multiplicity factor (MF) with C9: C9 3 µM; for MIC90 of antimycotic combined with C9: C9 at constant 3 µM; for MIC90 of antimycotic combined with C9 / MIC90 of antimycotic combined with C11 / MIC90 of antimycotic combined with C13 / MIC90 of antimycotic combined with C15: dilutions in µg/mL; for Multiplicity factor (MF) with C11: C11 3 µM; for MIC90 of antimycotic combined with C11: C11 at constant 3 µM; for Multiplicity factor (MF) with C13: C13 3 µM; for MIC90 of antimycotic combined with C13: C13 at constant 3 µM; for Multiplicity factor (MF) with C15: C15 3 µM; for MIC90 of antimycotic combined with C15: C15 at constant 3 µM
C. glabrata 2853 [9] = experiment: as above; settings: for Multiplicity factor (MF) with C9: C9 3 µM; for MIC90 of antimycotic combined with C9: C9 at constant 3 µM; for MIC90 of antimycotic combined with C9 / MIC90 of antimycotic combined with C11 / MIC90 of antimycotic combined with C13 / MIC90 of antimycotic combined with C15: dilutions in µg/mL; for Multiplicity factor (MF) with C11: C11 3 µM; for MIC90 of antimycotic combined with C11: C11 at constant 3 µM; for Multiplicity factor (MF) with C13: C13 3 µM; for MIC90 of antimycotic combined with C13: C13 at constant 3 µM; for Multiplicity factor (MF) with C15: C15 3 µM; for MIC90 of antimycotic combined with C15: C15 at constant 3 µM
C. glabrata ATCC 90030 [10] = experiment: as above; settings: for Multiplicity factor (MF) with C9: C9 3 µM, |MF| = MIC90 alone/MIC90 with AAB; for MIC90 of antimycotic combined with C9: C9 at constant 3 µM; for MIC90 of antimycotic combined with C9 / MIC90 of antimycotic combined with C11 / MIC90 of antimycotic combined with C13 / MIC90 of antimycotic combined with C15: dilutions in µg/mL; for Multiplicity factor (MF) with C11: C11 3 µM; for MIC90 of antimycotic combined with C11: C11 at constant 3 µM; for Multiplicity factor (MF) with C13: C13 3 µM; for MIC90 of antimycotic combined with C13: C13 at constant 3 µM; for Multiplicity factor (MF) with C15: C15 3 µM; for MIC90 of antimycotic combined with C15: C15 at constant 3 µM
[11] = system: C. glabrata strains (ATCC 90030, 2586, 2853); experiment: MIC, statements for all tested strains together; settings: Nakaseomyces glabratus, ATCC90030

SMILES | MFC [2] [µg/mL] | MIC90 [2] [µg/mL] | FICI (C. glabrata ATCC 90030 [3]) | FICI (C. glabrata 2853 [4]) | MFC (C. glabrata ATCC 90030 [6]) [µg/mL] | MIC90 (C. glabrata ATCC 90030 [6]) [µg/mL] | MFC [7] [µg/mL] | MIC90 [7] [µg/mL] | Multiplicity factor (MF) with C11 (C. glabrata 2586 [8]) | MIC90 of antimycotic combined with C11 (C. glabrata 2586 [8]) | Multiplicity factor (MF) with C13 (C. glabrata 2586 [8]) | MIC90 of antimycotic combined with C13 (C. glabrata 2586 [8]) | Multiplicity factor (MF) with C15 (C. glabrata 2586 [8]) | Multiplicity factor (MF) with C9 (C. glabrata 2853 [9]) | MIC90 of antimycotic combined with C9 (C. glabrata 2853 [9]) | Multiplicity factor (MF) with C9 (C. glabrata ATCC 90030 [10]) | Multiplicity factor (MF) with C11 (C. glabrata ATCC 90030 [10]) | MIC90 of antimycotic combined with C11 (C. glabrata ATCC 90030 [10]) | Multiplicity factor (MF) with C13 (C. glabrata ATCC 90030 [10]) | MIC90 of antimycotic combined with C13 (C. glabrata ATCC 90030 [10]) | also measured
Nc1nc(=O)[nH]cc1F [5-Fluorocytosine] | 1020 (≈ 7930 µM) | 512 (≈ 3970 µM) | 1.5 | 1.5 | 1020 (≈ 7930 µM) | 512 (≈ 3970 µM) | 512 (≈ 3970 µM) | 256 (≈ 1980 µM) | 1 | 512 | 1 | 512 | 1 | 1 | 256 | 1 | 1 | 512 | 1 | 512 | MF with AABs [1]: 1; FICI (C. glabrata 2586 [5]): 1.5; Multiplicity factor (MF) with C9 (C. glabrata 2586 [8]): 1; MIC90 of antimycotic combined with C9 (C. glabrata 2586 [8]): 512; MIC90 of antimycotic combined with C15 (C. glabrata 2586 [8]): 512; Multiplicity factor (MF) with C11 (C. glabrata 2853 [9]): 1; MIC90 of antimycotic combined with C11 (C. glabrata 2853 [9]): 256; Multiplicity factor (MF) with C13 (C. glabrata 2853 [9]): 1; MIC90 of antimycotic combined with C13 (C. glabrata 2853 [9]): 256; Multiplicity factor (MF) with C15 (C. glabrata 2853 [9]): 1; MIC90 of antimycotic combined with C15 (C. glabrata 2853 [9]): 256; MIC90 of antimycotic combined with C9 (C. glabrata ATCC 90030 [10]): 512; Multiplicity factor (MF) with C15 (C. glabrata ATCC 90030 [10]): 1; MIC90 of antimycotic combined with C15 (C. glabrata ATCC 90030 [10]): 512
C[C@@H]1[C@H](O)[C@@H](C)/C=C/C=C/C=C/C=C/C=C/C=C/C=C/[C@H](O[C@@H]2O[C@H](C)[C@@H](O)[C@H](N)[C@@H]2O)C[C@@H]2O[C@](O)(C[C@@H](O)C[C@@H](O)[C@H](O)CC[C@@H](O)C[C@@H](O)CC(=O)O[C@H]1C)C[C@H](O)[C@H]2C(=O)O [Amphotericin B] | 1 (≈ 1.08 µM) | 0.25 (≈ 0.271 µM) | 1.5 | 2.5 | 0.5 (≈ 0.541 µM) | 0.25 (≈ 0.271 µM) | 0.5 (≈ 0.541 µM) | 0.25 (≈ 0.271 µM) | 2 | 0.12 | 2 | 0.12 | 4 | 1 | 0.25 | 1 | 2 | 0.12 | 2 | 0.12 | Fold increase of activity with C11 ([1]; all the tested strains, C11 3 µM): 2 fold; Fold increase of activity with C13 ([1]; all the tested strains, C13 3 µM): 2 fold; Fold increase of activity with C15 ([1]; all the tested strains, C15 3 µM): 4 fold; Type of interaction with β-AE (by FICI) (C. glabrata 2586 [5]): additive; FICI (C. glabrata 2586 [5]): 1; FICI (C. glabrata 2586 [5]; listed as amphotericin B): 1.0; MIC [11]: 0.25 µg/mL (≈ 0.271 µM); Multiplicity factor (MF) with C9 (C. glabrata 2586 [8]): 2; MIC90 of antimycotic combined with C9 (C. glabrata 2586 [8]): 0.12; MIC90 of antimycotic combined with C15 (C. glabrata 2586 [8]): 0.06; Multiplicity factor (MF) with C11 (C. glabrata 2853 [9]): 2; MIC90 of antimycotic combined with C11 (C. glabrata 2853 [9]): 0.12; Multiplicity factor (MF) with C13 (C. glabrata 2853 [9]): 2; MIC90 of antimycotic combined with C13 (C. glabrata 2853 [9]): 0.12; Multiplicity factor (MF) with C15 (C. glabrata 2853 [9]): 4; MIC90 of antimycotic combined with C15 (C. glabrata 2853 [9]): 0.06; MIC90 of antimycotic combined with C9 (C. glabrata ATCC 90030 [10]): 0.25; Multiplicity factor (MF) with C15 (C. glabrata ATCC 90030 [10]): 4; MIC90 of antimycotic combined with C15 (C. glabrata ATCC 90030 [10]): 0.06
CC[C@H](C)C[C@H](C)CCCCCCCCC(=O)N[C@H]1C[C@@H](O)[C@@H](NCCN)NC(=O)[C@@H]2[C@@H](O)CCN2C(=O)[C@H]([C@H](O)CCN)NC(=O)[C@H]([C@H](O)[C@@H](O)c2ccc(O)cc2)NC(=O)[C@@H]2C[C@@H](O)CN2C(=O)[C@H]([C@@H](C)O)NC1=O [Caspofungin] | 0.06 (≈ 0.0549 µM) | 0.03 (≈ 0.0274 µM) | 0.75 | 0.75 | 0.06 (≈ 0.0549 µM) | 0.06 (≈ 0.0549 µM) | 0.06 (≈ 0.0549 µM) | 0.03 (≈ 0.0274 µM) |  |  |  |  |  |  |  | 1 | 1 | 0.06 | 1 | 0.06 | MF with AABs [1]: 1; Type of interaction with β-AE (by FICI) (C. glabrata ATCC 90030 [3]): additive; Type of interaction with β-AE (by FICI) (C. glabrata 2853 [4]): additive; Type of interaction with β-AE (by FICI) (C. glabrata 2586 [5]): additive; MIC90 of antimycotic combined with C9 (C. glabrata ATCC 90030 [10]): 0.06
CC[C@@H]([C@H](C)O)n1ncn(-c2ccc(N3CCN(c4ccc(OC[C@@H]5CO[C@@](Cn6cncn6)(c6ccc(F)cc6F)C5)cc4)CC3)cc2)c1=O [Posaconazole] | 1020 (≈ 1460 µM) | 512 (≈ 731 µM) | 1 | 0.562 | 1020 (≈ 1460 µM) | 256 (≈ 365 µM) | 256 (≈ 365 µM) | 1 (≈ 1.43 µM) | 2 | 256 | 2 | 256 | 1 | 8 (8) | 8 (8) | two-fold | 8 | 32 | 8 | 32 | Type of interaction with β-AE (by FICI) (C. glabrata ATCC 90030 [3]): additive; FICI (C. glabrata ATCC 90030 [3]; listed as posaconazole): 1.0; Type of interaction with β-AE (by FICI) (C. glabrata 2853 [4]): additive; FICI (C. glabrata 2586 [5]): 1.002; Multiplicity factor (MF) with C9 (C. glabrata 2586 [8]): 1; Multiplicity factor (MF) with C9 (C. glabrata 2586 [8]; listed as posaconazole): not observed; Multiplicity factor (MF) with C15 (C. glabrata 2586 [8]; listed as posaconazole): not observed; Multiplicity factor (MF) with C9 (C. glabrata 2853 [9]; listed as posaconazole): 8; Multiplicity factor (MF) with C11 (C. glabrata 2853 [9]): 4 (4); Multiplicity factor (MF) with C11 (C. glabrata 2853 [9]; listed as posaconazole): 4; MIC90 of antimycotic combined with C11 (C. glabrata 2853 [9]): 4 (4); Multiplicity factor (MF) with C13 (C. glabrata 2853 [9]): 4 (4); Multiplicity factor (MF) with C13 (C. glabrata 2853 [9]; listed as posaconazole): 4; MIC90 of antimycotic combined with C13 (C. glabrata 2853 [9]): 4 (4); Multiplicity factor (MF) with C15 (C. glabrata 2853 [9]): 256 (256); Multiplicity factor (MF) with C15 (C. glabrata 2853 [9]; listed as posaconazole): 256; MIC90 of antimycotic combined with C15 (C. glabrata 2853 [9]): 256 (256); Multiplicity factor (MF) with C15 (C. glabrata ATCC 90030 [10]): two-fold
C[C@@H](c1ncncc1F)[C@](O)(Cn1cncn1)c1ccc(F)cc1F [Voriconazole] | 1020 (≈ 2930 µM) | 512 (≈ 1470 µM) | 1 | 2.5 | 1020 (≈ 2930 µM) | 512 (≈ 1470 µM) | 512 (≈ 1470 µM) | 2 (≈ 5.73 µM) | 64 | 8 | 64 | 8 | 64 | 1 | 2 | 64 | 64 | 8 | 64 | 8 | Type of interaction with β-AE (by FICI) (C. glabrata ATCC 90030 [3]): additive; FICI (C. glabrata ATCC 90030 [3]; listed as voriconazole): 1.0; Type of interaction with β-AE (by FICI) (C. glabrata 2586 [5]): additive; MIC90 of antimycotic combined with C9 (C. glabrata 2586 [8]): 64; MIC90 of antimycotic combined with C15 (C. glabrata 2586 [8]): 8; Multiplicity factor (MF) with C9 (C. glabrata 2853 [9]; listed as voriconazole): did not alter the level of activity; Multiplicity factor (MF) with C11 (C. glabrata 2853 [9]): 2; Multiplicity factor (MF) with C11 (C. glabrata 2853 [9]; listed as voriconazole): twice; MIC90 of antimycotic combined with C11 (C. glabrata 2853 [9]): 1; Multiplicity factor (MF) with C13 (C. glabrata 2853 [9]): 2; Multiplicity factor (MF) with C13 (C. glabrata 2853 [9]; listed as voriconazole): twice; MIC90 of antimycotic combined with C13 (C. glabrata 2853 [9]): 1; Multiplicity factor (MF) with C15 (C. glabrata 2853 [9]): 128; MIC90 of antimycotic combined with C15 (C. glabrata 2853 [9]): 256; MIC90 of antimycotic combined with C9 (C. glabrata ATCC 90030 [10]): 8; Multiplicity factor (MF) with C15 (C. glabrata ATCC 90030 [10]): 64; MIC90 of antimycotic combined with C15 (C. glabrata ATCC 90030 [10]): 8
